Data: patent US12428396B2, “Fused pyridine ring derivative, preparation method therefor, and pharmaceutical use thereof” (priority 2019, dated 2025)
Where two headings read alike, the source gives them in different places.

Legend:
[1] = Beagle pharmacokinetic study (ig/sc/iv, plasma LC/MS/MS); format: in vivo, beagles; conditions: for AUC(0-t) / half-life / Cmax: dog, plasma; for AUC(0-t): read-out: Area under curve AUC0-72; for half-life: read-out: Half life T½ (converted); for Cmax: read-out: Plasma concentration Cmax
Protocol: Taking beagles as test animals, and the drug concentrations in dog plasma at various times after intragastric administration (ig)/subcutaneous injection (sc)/intravenous injection (iv) administration of the compound of Example 1-1 and Positive Control Example 1 were measured by using LC/MS/MS method. The pharmacokinetic performance in beagles of the compounds of the present disclosure was studied and the pharmacokinetic profile thereof was evaluated.
18 non-naïve beagles (999M-004, medicilon) with 7-12 kg, every 3 of which were in one group.
The intragastric administration group: a certain amount of the compounds was weighed, ethanol with a volume of 5% of the final volume, 20% PG, 45% PEG300 and 30% deionized water were added (the pH was adjusted to be about 2 with 0.01 N HCl), and the reaction mixture was subjected to ultrasonic stirring for uniform mixing to give an administration solution at a concentration of 0.8 mg/mL.
The subcutaneous injection administration group: a certain amount of the compounds was weighed, 2% aqueous poloxamer 188 solution with a proper volume was added, and the reaction mixture was subjected to ultrasonic stirring for uniform mixing to give a suspension administration solution at a concentration of 200 mg/mL.
The intravenous administration group: a certain amount of the compounds was weighed, 5% volume of DMSO, 30% PG, 30% PEG400 and 35% volume of normal saline were added, and the reaction mixture was subjected to vortex ultrasonic stirring for uniform mixing to give an administration solution at a concentration of 0.5 mg/mL.
Beagles were intragastrically administered with the compounds after fasting overnight, at a dose of 4.0 mg/kg and a volume of 5.0 mL/kg.
Beagles were subcutaneously injected with the compounds after fasting overnight, at a dose of 6.0 mg/kg and a volume of 0.03 mL/kg.
Beagles were intravenously injected with the compounds after fasting overnight, at a dose of 1.0 mg/kg and a volume of 2 mL/kg.
Beagles were intragastrically administered with the compound of Example 1-1/Positive Control Example 1, and 1 mL of blood was collected from the orbit before administration and at 0.25 h, 0.5 h, 1.0 h, 2.0 h, 4.0 h, 6.0 h, 8.0 h, 12.0 h, 24 h, 32 h, 48 h, 56 h and 72 h after administration, respectively, and placed in EDTA-K2 anticoagulant blood collection tubes, plasma was centrifuged (centrifugal force: 2200 g, centrifugation time: 10 min, 2-8° C.), and stored at −80° C., and food intake was resumed 3 h after administration.
The compound of Example 1-1/Positive Control Example 1 was subcutaneously injected to beagles, and 1 mL of blood was collected before administration and at 1.0 h, 3.0 h, 8.0 h, 24 h, 48 h, 72 h, 96 h, 168 h, 336 h, 432 h and 504 h after administration, respectively, and placed in EDTA-K2 anticoagulant blood collection tubes, plasma was centrifuged (centrifugal force: 2200 g, centrifugation time: 10 min, 2-8° C.), and stored at −80° C., and food intake was resumed 3 h after administration.
The content of the compound to be tested in the plasma of beagles was determined after the intragastric administration of the compounds at different concentrations: 20 μL of the plasma in beagles at each time after administration was taken, 200 μL of methanol containing internal standard (100 ng/mL) was added, the reaction mixture was subjected to vortex mixing for 1 min, and centrifuged for 7 min (centrifugal force: 18000 g), and 1 μL of the supernatant was taken from the plasma sample for LC/MS/MS analysis. […]

[2] = Monkey pharmacokinetic study (iv, plasma LC/MS/MS); format: in vivo, cynomolgus monkeys; conditions: cynomolgus monkey, intravenous injection, 1 mg/kg
Protocol: Taking cynomolgus monkeys as test animals and the drug concentrations in monkey plasma at various times after intravenous injection (iv) of the compounds of Example 1-1 and Positive Control Example 1 were measured by using LC/MS/MS method. The pharmacokinetic performance in cynomolgus monkeys of the compounds of the present disclosure was studied and the pharmacokinetic profile thereof was evaluated.
6 non-naïve cynomolgus monkeys (999M-004, medicilon) with 2-5 kg, every 3 of which were in one group.
A certain amount of the compounds was weighed, 5% volume of DMSO, 30% PG, 30% PEG400 and 35% volume of normal saline were added, and the reaction mixture was subjected to vortex ultrasonic stirring for uniform mixing to give a clean administration solution at a concentration of 0.5 mg/mL.
Monkeys were intravenously injected with the compounds after fasting overnight, at a dose of 1.0 mg/kg and a volume of 2 mL/kg.
The compound of Example 1-1/Positive Control Example 1 was intravenously injected to monkeys, and 1 mL of blood was collected through femoral vein before administration and at 5 min, 0.25 h, 0.5 h, 1.0 h, 2.0 h, 4.0 h, 8.0 h, 12.0 h, 24 h, 32 h, 48 h, 56 h and 72 h after administration, respectively, and placed in EDTA-K2 anticoagulant blood collection tubes, plasma was centrifuged (centrifugal force: 2200 g, centrifugal time: 10 min, 2-8° C.), and stored at −80° C., and food intake was resumed 3 h after administration.

[3] = po, intragastric administration, 4 mg/kg
[4] = sc, subcutaneous injection, 6 mg/kg

CC(C)(C#Cc1ccc(-c2ccc(Cl)c3c(NS(C)(=O)=O)nn(CC(F)(F)F)c23)c([C@H](Cc2cc(F)cc(F)c2)NC(=O)Cn2nc(C(F)(F)F)c3c2C(F)(F)[C@@H]2C[C@H]32)n1)S(C)(=O)=O [Positive Control Example 1, N—((S)-1-(3-(4-chloro-3-(methylsulfonamido)-1-(2,2,2-trifluoroethyl)-1H-indazol-7-yl)-6-(3-methyl-3-(methylsulfonyl)but-1-yn-1-yl)pyridin-2-yl)-2-(3,5-difluorophenyl)ethyl)-2-((3bS,4aR)-5,5-difluoro-3-(trifluoromethyl)-3b,4,4a,5-tetrahydro-1H-cyclopropa[3,4]cyclopenta[1,2-c]pyrazol-1-yl)acetamide, reference compound]
AUC(0-t) ([1]; intravenous injection, 1 mg/kg): 14700 ng·h/mL
half-life ([1]; intravenous injection, 1 mg/kg): 13.7 h
Cmax ([1]; intravenous injection, 1 mg/kg): 1110 ng/mL
AUC(0-t) [1, 3]: 11200 ng·h/mL
half-life [1, 3]: 23 h
Cmax [1, 3]: 414 ng/mL
AUC(0-t) [1, 4]: 17700 ng·h/mL
Cmax [1, 4]: 54.6 ng/mL
Clearance CLz/F ([1]; intravenous injection, 1 mg/kg): 1.1 mL/min/kg
Clearance CLz/F [2]: 7.8 mL/min/kg
AUC(0-t) ([2]; plasma, read-out: Area under curve AUC0-72): 2130 ng·h/mL
